Assay results as given in ChEMBL document CHEMBL1201862, “PubChem BioAssay data set” (2004).
Values belong to the molecule of their own block, whether it stands above or below them. The source made the active and inactive calls.

How the values were obtained:
Aminopeptidase N = target: T1, Aminopeptidase N (Plasmodium falciparum FcB1/Columbia, UniProt O96935); experiment: malaria alanyl aminopeptidase activity blockers – biochemical, fluorogenic H-Leu-NHMec substrate, 1536-well (AID 1445); set-up: species or system Plasmodium falciparum 3D7, 3D7
T1 sequence (O96935 whole entry): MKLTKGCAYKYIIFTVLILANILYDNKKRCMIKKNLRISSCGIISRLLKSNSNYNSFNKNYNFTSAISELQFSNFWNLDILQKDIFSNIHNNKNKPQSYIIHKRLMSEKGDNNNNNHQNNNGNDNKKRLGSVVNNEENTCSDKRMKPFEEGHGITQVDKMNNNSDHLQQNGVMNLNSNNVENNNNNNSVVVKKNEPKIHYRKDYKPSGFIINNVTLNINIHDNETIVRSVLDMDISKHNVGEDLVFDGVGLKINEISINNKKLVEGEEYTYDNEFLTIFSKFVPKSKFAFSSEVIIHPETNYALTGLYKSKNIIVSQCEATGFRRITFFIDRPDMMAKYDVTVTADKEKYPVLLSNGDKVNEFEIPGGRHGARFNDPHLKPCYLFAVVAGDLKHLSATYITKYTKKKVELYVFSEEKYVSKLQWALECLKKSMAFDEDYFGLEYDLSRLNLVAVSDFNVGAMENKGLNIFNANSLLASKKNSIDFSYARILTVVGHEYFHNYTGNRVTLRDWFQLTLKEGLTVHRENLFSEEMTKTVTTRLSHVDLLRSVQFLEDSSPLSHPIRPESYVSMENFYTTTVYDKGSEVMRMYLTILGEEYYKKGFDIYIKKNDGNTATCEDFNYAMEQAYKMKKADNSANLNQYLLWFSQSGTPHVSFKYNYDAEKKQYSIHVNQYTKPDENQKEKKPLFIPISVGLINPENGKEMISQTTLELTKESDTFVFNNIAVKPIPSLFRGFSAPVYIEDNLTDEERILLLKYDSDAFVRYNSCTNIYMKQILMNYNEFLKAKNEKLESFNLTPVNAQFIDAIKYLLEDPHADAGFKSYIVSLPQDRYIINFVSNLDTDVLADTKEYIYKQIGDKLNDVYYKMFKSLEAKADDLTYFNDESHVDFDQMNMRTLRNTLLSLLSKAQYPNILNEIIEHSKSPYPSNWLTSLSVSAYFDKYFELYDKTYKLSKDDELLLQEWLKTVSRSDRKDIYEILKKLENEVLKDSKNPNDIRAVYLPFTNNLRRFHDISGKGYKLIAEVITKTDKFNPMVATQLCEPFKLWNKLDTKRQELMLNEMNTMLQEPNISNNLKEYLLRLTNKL

[1] = target: T2, Sentrin-specific protease 6 (Homo sapiens, UniProt Q9GZR1); type: functional;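 further: Luminescence-based dose-response confirmatory assay of SENP6 inhibition, following up an ultra-high-throughput screen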
T2 sequence (Q9GZR1 whole entry): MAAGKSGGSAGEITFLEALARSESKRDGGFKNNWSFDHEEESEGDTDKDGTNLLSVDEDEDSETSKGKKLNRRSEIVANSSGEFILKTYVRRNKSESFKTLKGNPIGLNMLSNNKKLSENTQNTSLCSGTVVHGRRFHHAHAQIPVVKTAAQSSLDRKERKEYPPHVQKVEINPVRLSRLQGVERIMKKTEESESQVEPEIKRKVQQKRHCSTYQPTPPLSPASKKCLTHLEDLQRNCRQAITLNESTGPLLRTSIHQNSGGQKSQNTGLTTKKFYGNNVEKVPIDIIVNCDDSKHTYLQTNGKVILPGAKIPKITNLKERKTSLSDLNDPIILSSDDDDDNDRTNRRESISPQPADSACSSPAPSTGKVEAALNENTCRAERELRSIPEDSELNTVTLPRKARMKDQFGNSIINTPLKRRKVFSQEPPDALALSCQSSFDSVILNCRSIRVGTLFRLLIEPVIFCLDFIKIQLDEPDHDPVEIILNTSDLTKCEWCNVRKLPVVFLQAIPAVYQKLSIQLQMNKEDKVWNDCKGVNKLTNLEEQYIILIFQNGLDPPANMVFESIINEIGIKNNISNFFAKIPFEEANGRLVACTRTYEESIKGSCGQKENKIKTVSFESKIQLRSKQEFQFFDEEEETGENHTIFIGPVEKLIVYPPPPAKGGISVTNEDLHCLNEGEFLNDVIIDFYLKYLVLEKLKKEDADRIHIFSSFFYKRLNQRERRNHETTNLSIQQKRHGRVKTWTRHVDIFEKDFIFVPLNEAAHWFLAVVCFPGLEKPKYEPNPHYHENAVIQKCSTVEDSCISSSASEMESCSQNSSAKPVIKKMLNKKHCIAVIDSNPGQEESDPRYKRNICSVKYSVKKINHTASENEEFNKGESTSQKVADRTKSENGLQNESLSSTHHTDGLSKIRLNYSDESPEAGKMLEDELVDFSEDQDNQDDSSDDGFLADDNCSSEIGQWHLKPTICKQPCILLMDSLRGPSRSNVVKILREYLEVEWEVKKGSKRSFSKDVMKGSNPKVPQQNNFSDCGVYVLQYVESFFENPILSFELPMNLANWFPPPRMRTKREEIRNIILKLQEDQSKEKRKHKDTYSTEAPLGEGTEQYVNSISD

[2] = viability loss in THP-1 monocytes – THP-1 cells, cytotoxicity control for Vif-APOBEC3G degradation inhibitor project, dose response (AID 1117359); type: functional; conditions: THP-1
Bcl-2-like protein 10 = target: T3, Bcl-2-like protein 10 (Homo sapiens, UniProt Q9HD36); experiment: Bcl-B/TR3 peptide binding disruption – biochemical, fluorescence polarization, FITC-TR3 peptide, selectivity assay for Bfl-1 inhibitor project, primary screen (AID 748);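 further: fluorescence polarization from a fluorescein-labelled TR3 peptide binding purified Bcl-B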
T3 sequence (Q9HD36 whole entry): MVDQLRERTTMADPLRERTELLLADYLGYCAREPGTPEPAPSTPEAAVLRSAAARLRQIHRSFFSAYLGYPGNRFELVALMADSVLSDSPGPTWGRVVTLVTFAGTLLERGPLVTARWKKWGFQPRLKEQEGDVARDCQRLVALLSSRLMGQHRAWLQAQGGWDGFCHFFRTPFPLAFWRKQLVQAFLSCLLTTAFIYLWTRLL

[3] = alpha-synuclein stem-loop luciferase translation blockers – H4 neuroglioma cells, luminescence, confirmation (AID 1988); type: functional, cell-based
Beta-galactosidase = Beta-galactosidase (Escherichia coli, UniProt Q8VNN2); experiment: PubChem AID 485352; type: functional
Chain of Beta-galactosidase (Q8VNN2 whole entry): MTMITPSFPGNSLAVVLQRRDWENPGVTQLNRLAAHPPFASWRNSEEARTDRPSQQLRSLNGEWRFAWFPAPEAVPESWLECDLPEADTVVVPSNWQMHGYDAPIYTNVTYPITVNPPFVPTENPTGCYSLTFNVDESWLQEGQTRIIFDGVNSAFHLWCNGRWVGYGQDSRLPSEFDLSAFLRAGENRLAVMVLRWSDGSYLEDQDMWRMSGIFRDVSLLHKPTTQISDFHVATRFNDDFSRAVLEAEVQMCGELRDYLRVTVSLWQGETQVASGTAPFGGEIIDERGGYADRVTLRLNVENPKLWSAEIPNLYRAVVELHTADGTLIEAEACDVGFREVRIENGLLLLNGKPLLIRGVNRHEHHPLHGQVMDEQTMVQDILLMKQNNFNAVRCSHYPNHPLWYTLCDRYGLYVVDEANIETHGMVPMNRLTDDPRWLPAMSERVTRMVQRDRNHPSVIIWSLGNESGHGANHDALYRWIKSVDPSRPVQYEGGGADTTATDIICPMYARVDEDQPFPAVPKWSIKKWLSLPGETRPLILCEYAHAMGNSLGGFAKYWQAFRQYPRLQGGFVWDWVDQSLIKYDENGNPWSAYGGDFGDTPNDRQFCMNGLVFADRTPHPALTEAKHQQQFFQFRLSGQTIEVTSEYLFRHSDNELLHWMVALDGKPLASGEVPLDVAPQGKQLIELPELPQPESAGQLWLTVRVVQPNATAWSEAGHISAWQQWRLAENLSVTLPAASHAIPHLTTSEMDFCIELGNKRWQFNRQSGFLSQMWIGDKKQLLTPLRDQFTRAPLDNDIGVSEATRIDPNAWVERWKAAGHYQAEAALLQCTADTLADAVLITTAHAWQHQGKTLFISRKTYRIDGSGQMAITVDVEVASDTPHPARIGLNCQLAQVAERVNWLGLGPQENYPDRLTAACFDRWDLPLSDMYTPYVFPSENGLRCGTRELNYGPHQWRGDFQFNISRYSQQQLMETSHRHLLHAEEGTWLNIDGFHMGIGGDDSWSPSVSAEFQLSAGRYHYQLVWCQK

IC50 (Aminopeptidase N): 22.9 µM (active)
IC50 [1]: 2.03 µM (active)
Structure (SMILES): N#Cc1c(NC(=O)c2ccc(Br)o2)n(-c2ccccc2)c2nc3ccccc3nc12

Structure (SMILES): COc1cc(-c2nnc(SCc3cc(=O)oc4cc(O)c(O)cc34)o2)cc(OC)c1OC
CC50 [2]: > 40 µM (active)
IC50 (Bcl-2-like protein 10): 0.493 µM (active)

Structure (SMILES): CCOC(=O)c1c(-c2ccc(-c3ccccc3)cc2)csc1NC(=O)CNCCN(C)C
EC50 [3]: 9.16 µM (active)
EC50 (Beta-galactosidase): > 40 µM (inactive)
